US11339142B2, “Di-substituted pyrazole compounds for the treatment of diseases” (FGH BIOTECH, INC., priority 2016, dated 2022)

Experiments:
SCD1 expression = experiment: Quantitative PCR (qPCR) inhibition assay, SCD1 mRNA expression in Hep G2 cells; format: cell-based; settings: Homo sapiens, HepG2 cells, 24 hours incubation, mRNA by qPCR, read-out: SCD1 Inhibition Percentage (%) at 1 μM
Procedure: Hep G2 cells were obtained from ATCC and grown in DMEM supplemented with 10% FBS in a 5% CO2 incubator at 37° C. For the assay the cells were plated in 96 well plates at a concentration of 75,000 cells/well in DMEM with 5% FBS. The compounds were serially diluted in DMSO from 30 to 0.1 mM and then diluted 1:1000 in growth medium. The medium was added to the cells in duplicate 24 hours after plating. After 24 hours of incubation the RNA was isolated from the cells using the RNAqueous®-96 Total RNA Isolation Kit (Ambion). The eluted RNA was reverse transcribed using the Cells-to-Ct kit reverse transcriptase (Ambion). For the quantitative PCR the cDNA was analyzed using the Power SYBR® Green PCR Master Mix (Applied Biosystems) and gene specific primers. The reaction was run on an ABI7300 thermocycler and the instrument software was used to determine the Ct values. The fold change of mRNA expression relative to the vehicle control was calculated using the method by Livak. Primer sequence was as follows: SCD1, 5′-[…]-3′/5′-[…]-3′.
(§1) All data for Biological Examples 1a and 1b were measured in HepG2 cells. % inhibition of SCD1 expression, % inhibition of PCSK9 expression, and PCSK9 IC50 data are provided in Table 1. NA means the compound was not active at the concentration tested.

PCSK9 expression = experiment: Quantitative PCR (qPCR) inhibition assay, PCSK9 mRNA expression in Hep G2 cells; format: cell-based; settings: Homo sapiens, HepG2 cells, 24 hours incubation, mRNA by qPCR; for inhibition at 0.32 µM: 320 nM, read-out: PCSK9 Inhibition Percentage (%) at 320 nM
Procedure: Hep G2 cells were obtained from ATCC and grown in DMEM supplemented with 5% FBS in a 5% CO2 incubator at 37° C. For the assay the cells were plated in 24 well plates at a concentration of 100,000 cells/well in DMEM with 5% FBS. The compounds were serially diluted in DMSO from 0.1 to 20 mM and then diluted 1:1000 in growth medium. The medium was added to the cells in duplicate 24 hours after plating. After 24 hours of incubation the RNA was isolated from the cells using the illustra RNAspin Mini kit (GE Healthcare). For the quantitative PCR the RNA was analyzed using the Power SYBR® Green PCR Master Mix (Applied Biosystems) and gene specific primers. The reaction was run on a StepOnePlus Real-Time PCR System (Thermo Fisher Scientific) and the instrument software was used to determine the Ct values. The fold change of mRNA expression relative to the vehicle control was calculated. Primer sequence was as follows: PCSK9, 5′-[…]-3′/5′-[…]-3′.
as §1

Row | Structure (SMILES) | inhibition at 1 µM (SCD1 expression) [%] | inhibition at 0.32 µM (PCSK9 expression) [%] | IC50 (PCSK9 expression) [nM]
1 | CCCn1cc(-n2cc(-c3ccc(O[C@H](C)CC)nc3C)cn2)ccc1=O [Example 10] | ≥ 40 | ≥ 40 | 
2 | CCCn1cc(-n2cc(-c3ccc(OCC4CC4)nc3C)cn2)ccc1=O [Example 6] | ≥ 40 | 10 to 40 | 150 to 600
3 | CCCn1cc(-n2cc(-c3ccc(S(=O)(=O)C(C)C)cc3Cl)cn2)ccc1=O [Example 17] | ≥ 40 | ≥ 40 | 150 to 600
4 | CCCn1cc(-n2cc(-c3ccc(S(=O)(=O)CC(C)C)cc3Cl)cn2)ccc1=O [Example 18] | 10 to 40 | 10 to 40 | 
5 | CCCn1cc(-n2cc(-c3ccc(OCC(C)C)nc3C)cn2)ccc1=O [Example 5] | ≥ 40 | ≥ 40 | 
